Common to all, as to type: biochemical
Assay [1] deals with T1, vacuolar-type ATPase (V-ATPase) (Saccharomyces cerevisiae, UniProt P25515+P32563). Put plainly: enzyme-coupled ATPase assay.
For the next assay, the target named is human HSP90α (Homo sapiens, UniProt P07900). Kind of assay: ATP/NADH-coupled ATPase assay.
For assay [2], the target named is T1, vacuolar-type ATPase (V-ATPase). Kind of assay: enzyme-coupled ATPase assay. This is another data set of the same source.

`CO/C1=C\C(C)=C\[C@@H](C)[C@@H](O)[C@@H](C)C/C(C)=C/C=C/[C@H](OC)[C@@H]([C@@H](C)[C@@H](O)[C@H](C)[C@@]2(O)C[C@@H](O)[C@H](C)[C@@H](C(C)C)O2)OC1=O` [bafilomycin A1]: the “enzyme-coupled ATPase assay (NADH loss) with purified V-ATPase” value in assay [1] was “Oxohygrolidin (black bar) inhibited V-ATPase comparable to the plecomacrolides, bafilomycin A1(dotted bar), and concanamycin A (hatched bar)”. With `CC[C@@H](O)[C@H](C)/C=C/C(=O)[C@@H](C)[C@H](O)[C@H](C)[C@H]1OC(=O)/C(C)=C/C(C)=C/[C@@H](C)[C@@H](O)[C@@H](C)C/C(C)=C/C=C/[C@@H]1OC` [oxohygrolidin], the IC50 (as a rule, the concentration needed to halve the response being measured) is approximately 50 µM on human HSP90α and approximately 0.25 µM in assay [2].

The record behind these values is article PMC4658348 (ACS chemical biology, 2015).
